According to PubChem BioAssay AID1259411 (Chemical Carcinogenesis Research Information System (CCRIS), 2018):
Calls of active or inactive are those of the source. The rule behind the calls is not given here.

Tested on: rodent carcinogenicity bioassays, tumor incidence
Test: CCRIS carcinogenicity studies
In short: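 Archive of carcinogenicity, mutagenicity, tumor promotion and tumor inhibition results drawn from journals, NCI reports and other sources, expert-reviewed; covers 1985-2011 and is no longer updated.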

[1] = Species: MOUSE, Route: INTRAPERITONEAL, Tumor Site: Type of Lesion: LUNG

Compound: C=CC=O
- carcinogen call (Species: MOUSE, Strain/Sex: B6C3F1/FEMALE, Route: INTRAPERITONEAL, Dose: 0, 75 NMOL TOTAL DOSE, 1/3 AND 2/3 OF THE TOTAL DOSE ADMINISTERED AT 8 AND 15 DAYS OF AGE RESPECTIVELY, ANIMALS TERMINAT): inactive; negative
- carcinogen call (Species: MOUSE, Strain/Sex: B6C3F1/FEMALE, Route: INTRAPERITONEAL, Dose: 0, 150 NMOL TOTAL DOSE, 1/3 AND 2/3 OF THE TOTAL DOSE ADMINISTERED AT 8 AND 15 DAYS OF AGE RESPECTIVELY, ANIMALS TERMINA): inactive; negative
- carcinogen call (Species: MOUSE, Strain/Sex: B6C3F1/MALE, Route: INTRAPERITONEAL, Dose: 0, 75 NMOL TOTAL DOSE, 1/3 AND 2/3 OF THE TOTAL DOSE ADMINISTERED AT 8 AND 15 DAYS OF AGE RESPECTIVELY, ANIMALS TERMINAT): inactive; negative
- carcinogen call (Species: MOUSE, Strain/Sex: B6C3F1/MALE, Route: INTRAPERITONEAL, Dose: 0, 150 NMOL TOTAL DOSE, 1/3 AND 2/3 OF THE TOTAL DOSE ADMINISTERED AT 8 AND 15 DAYS OF AGE RESPECTIVELY, ANIMALS TERMINA): inactive; negative
- carcinogen call (Species: MOUSE, Strain/Sex: CD-1/FEMALE, Route: GAVAGE, Dose: 0, 0.5, 2, 4.5 MG/KG (STABILIZED WITH 0.25%-0.3% HYDROQUINONE) 1/D FOR 18 MO (STUDY DURATION: 18 MO), Dose: 0, 0.5, 2, 4.5 MG/KG (STABILIZED WITH 0.25%-0.3% HYDROQUINONE) 1/D FOR 18 MO (STUDY DURATION: 18 MO)): inactive; negative
- carcinogen call (Species: MOUSE, Strain/Sex: CD-1/MALE, Route: GAVAGE, Dose: 0, 0.5, 2, 4.5 MG/KG (STABILIZED WITH 0.25%-0.31 HYDROQUINONE) 1/D FOR 18 MO (STUDY DURATION: 18 MO), Dose: 0, 0.5, 2, 4.5 MG/KG (STABILIZED WITH 0.25%-0.31 HYDROQUINONE) 1/D FOR 18 MO (STUDY DURATION: 18 MO)): inactive; negative
- carcinogen call (Species: RAT, Strain/Sex: F344/FEMALE, Route: ORAL, Dose: 0, 625 MG/L IN DRINKING WATER 5 D/WK FOR 100 WK (STUDY DURATION: 130 WK)): inactive; negative
- carcinogen call (Species: RAT, Strain/Sex: F344/MALE, Route: INTRAPERITONEAL, Dose: 0, 2 MG/KG 2/WK FOR 9 WK THEN 1.5 MG/KG ONCE IN WK 4 THEN 2/WK FOR 7 WK FOLLOWED BY 1 MG/KG ONCE IN WK 12, TWICE IN WK 1): inactive; negative
- carcinogen call (Species: RAT, Strain/Sex: F344/MALE, Route: ORAL, Dose: 0, 100, 250, 625 MG/L IN DRINKING WATER 5 D/WK FOR UP TO 120 WK (STUDY DURATION: 130 WK), Dose: 0, 100, 250, 625 MG/L IN DRINKING WATER 5 D/WK FOR UP TO 120 WK (STUDY DURATION: 130 WK)): inactive; negative
- carcinogen call (Species: RAT, Strain/Sex: SPRAGUE-DAWLEY/FEMALE, Route: GAVAGE, Dose: 0, 0.05, 0.5, 2.5 MG/KG/D IN WATER FOR 102 WK (STUDY DURATION: 24 MO), Dose: 0, 0.05, 0.5, 2.5 MG/KG/D IN WATER FOR 102 WK (STUDY DURATION: 24 MO)): inactive; negative
- carcinogen call (Species: RAT, Strain/Sex: SPRAGUE-DAWLEY/MALE, Route: GAVAGE, Dose: 0, 0.05, 0.5, 2.5 MG/KG/D IN WATER FOR 102 WK (STUDY DURATION: 24 MO), Dose: 0, 0.05, 0.5, 2.5 MG/KG/D IN WATER FOR 102 WK (STUDY DURATION: 24 MO)): inactive; negative

Compound: Nc1ccc(Oc2ccc(N)c(Cl)c2)cc1Cl
- carcinogen call (Species: RAT, Route: SUBCUTANEOUS, Tumor Site: Type of Lesion: EAR (CANAL)): active; positive

Compound: COS(C)(=O)=O
- carcinogen call [1]: active; positive
- carcinogen call (Species: MOUSE, Route: ORAL, Tumor Site: Type of Lesion: LUNG, THYMUS GLAND): active; positive
- carcinogen call (Species: RAT, Strain/Sex: SPRAGUE-DAWLEY/MALE, Route: INHALATION, Dose: 0, 50 PPM 6 HR/D 5 D/WK FOR 30 D (STUDY DURATION: LIFETIME), Tumor Site: Type of Lesion: NASAL CAVITY: TUMORS): active; positive

Compound: NNc1ccc(C(=O)O)cc1
- carcinogen call (Species: MOUSE, Strain/Sex: STRAIN-A/FEMALE, Route: ORAL, Dose: 0, 1000 PPM IN DRINKING WATER FOR 26 WK (STUDY DURATION: 26 WK)): inactive; negative

Compound: CCCOC(N)=O
- carcinogen call [1]: active; positive

Compound: CON(C)C(=O)Nc1ccc(Cl)c(Cl)c1
- carcinogen call (Species: Mouse, Strain/Sex: CD-1/Female (80/Group), Route: Oral, Dose: 0, 50, 150, 1500 ppm of 97% linuron in diet for 24 mo, study duration 24 mo, Dose: 0, 50, 150, 1500 ppm of 97% linuron in diet for 24 mo, study duration 24 mo, Tumor Site: Type of Lesion: Liver: hepatocellular adenomas (high dose only)): active; positive
- carcinogen call (Species: Mouse, Strain/Sex: CD-1/Male (80/Group), Route: Oral, Dose: 0, 50, 150, 1500 ppm of 97% linuron in diet for 24 mo, study duration 24 mo, Dose: 0, 50, 150, 1500 ppm of 97% linuron in diet for 24 mo, study duration 24 mo): inactive; negative
- carcinogen call (Species: Rat, Strain/Sex: Charles River CD/Female (70/Group), Route: Oral, Dose: 0, 50, 125, 625 ppm 97% linuron in diet for 24 mo, study duration 24 mo, Dose: 0, 50, 125, 625 ppm 97% linuron in diet for 24 mo, study duration 24 mo): inactive; negative
- carcinogen call (Species: Rat, Strain/Sex: Charles River CD/Male (70/Group), Route: Oral, Dose: 0, 50, 125, 625 ppm 97% linuron in diet for 24 mo, study duration 24 mo, Dose: 0, 50, 125, 625 ppm 97% linuron in diet for 24 mo, study duration 24 mo, Tumor Site: Type of Lesion: Testes: Interstitial cell adenoma): active; positive
- carcinogen call (Species: Rat, Strain/Sex: Crl:CD (SD)BR /Male (25/Group), Route: Oral, Dose: 0 (control diet), control diet for 18 mo followed by 625 ppm linuron for 6 mo, control diet for 1 yr followed by 625 ppm, Dose: 0 (control diet), control diet for 18 mo followed by 625 ppm linuron for 6 mo, control diet for 1 yr followed by 625 ppm, Tumor Site: Type of Lesion: Testes: interstitial cell tumors (0/25, 2/25 (6-mo. feed), 6/25 (12 mo feed))): active; positive

Compound: C[CH2][Pb]([CH2]C)([CH2]C)[CH2]C
- carcinogen call (Species: MOUSE, Strain/Sex: ICR/FEMALE, Route: SUBCUTANEOUS, Dose: 0, 0.1 MG IN TRICAPRYLIN AT DAYS 1 AND 7 OF AGE AND 0, 0.2 MG AT DAYS 14 AND 21 OF AGE FOR A TOTAL DOSE OF 0, 0.6 MG (ST, Dose: 0, 0.1 MG IN TRICAPRYLIN AT DAYS 1 AND 7 OF AGE AND 0, 0.2 MG AT DAYS 14 AND 21 OF AGE FOR A TOTAL DOSE OF 0, 0.6 MG (ST, Tumor Site: Type of Lesion: HEMATOPOIETIC SYSTEM: LYMPHOMA): active; positive
- carcinogen call (Species: MOUSE, Strain/Sex: ICR/MALE, Route: SUBCUTANEOUS, Dose: 0, 0.1 MG IN TRICAPRYLIN ON DAYS 1 AND 7 OF AGE AND 0, 0.2 MG ON DAYS 14 AND 21 OF AGE FOR A TOTAL DOSE OF 0, 0.6 MG (ST, Dose: 0, 0.1 MG IN TRICAPRYLIN ON DAYS 1 AND 7 OF AGE AND 0, 0.2 MG ON DAYS 14 AND 21 OF AGE FOR A TOTAL DOSE OF 0, 0.6 MG (ST): inactive; negative

Compound: COCC(=O)N(c1c(C)cccc1C)C(C)C(=O)OC (stereo not drawn)
- carcinogen call (Species: Mouse, Strain/Sex: ICI Alderly Park (Swiss strain origin)/Female (60/Group), Route: Oral, Dose: 0, 50, 250, 1250 ppm of 93.8-95.2% metalaxyl in diet for 104 wk, study duration 104 wk, Dose: 0, 50, 250, 1250 ppm of 93.8-95.2% metalaxyl in diet for 104 wk, study duration 104 wk): inactive; negative
- carcinogen call (Species: Mouse, Strain/Sex: ICI Alderly Park (Swiss strain origin)/Male (60/Group), Route: Oral, Dose: 0, 50, 250, 1250 ppm of 93.8-95.2% metalaxyl in diet for 104 wk, study duration 104 wk, Dose: 0, 50, 250, 1250 ppm of 93.8-95.2% metalaxyl in diet for 104 wk, study duration 104 wk): inactive; negative
- carcinogen call (Species: Rat, Strain/Sex: CD (Sprague-Dawley derived)/Female (70/Group), Route: Oral, Dose: 0, 50, 250, 1250 ppm of 93% metalaxyl in diet for 105 wk, study duration 105 wk, Dose: 0, 50, 250, 1250 ppm of 93% metalaxyl in diet for 105 wk, study duration 105 wk, Tumor Site: Type of Lesion: Thyroid: follicular cell adenoma): active; positive
- carcinogen call (Species: Rat, Strain/Sex: CD (Sprague-Dawley derived)/Male (70/Group), Route: Oral, Dose: 0, 50, 250, 1250 ppm of 93% metalaxyl in diet for 105 wk, study duration 105 wk, Dose: 0, 50, 250, 1250 ppm of 93% metalaxyl in diet for 105 wk, study duration 105 wk): inactive; negative

Compound: C[C@]12CC[C@@H]3c4ccc(O)cc4CC[C@H]3[C@@H]1CC[C@H]2O
- carcinogen call (Species: HAMSTER, Strain/Sex: SYRIAN/MALE, Route: SUBCUTANEOUS IMPLANT, Dose: 0, 20 MG IN PELLETS IMPLANTED EVERY 2.5 MO FOR 9 MO (STUDY DURATION: 9 MO)): inactive; negative

Compound: Cc1c(N)nc(C)c2c1[nH]c1ccccc12
- carcinogen call (Species: MOUSE, Strain/Sex: CDF1/FEMALE, Route: ORAL, Dose: 0, 200 PPM IN DIET FOR 621 D, Tumor Site: Type of Lesion: LIVER: HEPATOCELLULAR CARCINOMA): active; positive
- carcinogen call (Species: MOUSE, Strain/Sex: DDY/FEMALE, Route: BLADDER IMPLANT, Dose: 0, 5% IN PARAFFIN PELLET (STUDY DURATION: 40 WK), Tumor Site: Type of Lesion: URINARY BLADDER: TRANSITIONAL CELL CARCINOMA): active; positive
- carcinogen call (Species: RAT, Strain/Sex: F344/FEMALE, Route: ORAL, Dose: 0, 0.02% IN PELLET DIET FOR DURATION OF STUDY (STUDY DURATION: 365 D), Tumor Site: Type of Lesion: LIVER: TRABECULAR CARCINOMA, ADENOCARCINOMA): active; positive
- carcinogen call (Species: RAT, Strain/Sex: F344/MALE, Route: ORAL, Dose: 0, 0.015% IN PELLET DIET FOR DURATION OF STUDY (STUDY DURATION: 365 D), Tumor Site: Type of Lesion: LIVER: TRABECULAR CARCINOMA, ADENOCARCINOMA): active; positive
